From patent EP1375483A1, “6-CHLORO-3-PYRIDYLMETHYLPROPYLAMINE DERIVATIVES, PREPARATION PROCESS THEREOF AND BACTERICIDES” (KUREHA KAGAKU KOGYO KABUSHIKI KAISHA, priority 2001, dated 2001) come the findings set out here.

Assay [1] has as its system wheat powdery mildew. Briefly: Test of control effect on wheat powdery mildew (Test Example 1). The class given is in vivo. To be noted: wettable powder 125 mg/l, 100 liters/10 a, sprinkled on wheat seedlings (Nourin 64) before inoculation, examined 9th to 14th day after inoculation; for pest or weed control at 125 µg/mL: Triticum aestivum. The method, then:
Wettable powders were prepared from compounds of the present invention I-1 to I-27 and comparative compounds (a) to (d) , (m-1) and (m-3). The obtained wettable powder was diluted and suspended with water to provide the predetermined concentration (125 mg/l), and was sprinkled onto seedlings of wheat (variety: "Nourin 64") at the first to the second leaf period which were cultivated using square plastic pots (size: 6.4 cm x 6.4 cm) in a rate of 100 liters/10 a (ares). After drying the sprinkled leaves with air, a suspension of wheat powdery mildew spores taken from infected leaves was inoculated by spraying onto the sprinkled leaves. They were supervised in a green house (temperature: 20 to 24°C, relative humidity: 20 to 70 RH). On the 9th to 14th day after the inoculation, the infection degree was examined according to the following scale and the control value of each compound was calculated by the following calculation equation 1. [table] (Equation 1) Control value = (1 - infection degree of treated zone/infection degree of untreated zone) x 100 (%) [formula] The control values of each compound are shown in Table 8.

For assay [2], the system named is cucumber powdery mildew. Briefly: Test of control effect on cucumber powdery mildew (Test Example 2). The class given is in vivo. To be noted: wettable powder 100 mg/l, 100 liters/10 a, sprinkled on cucumbers (Sagamihanpakufushinari) before inoculation, examined 9th to 14th day after inoculation; for pest or weed control at 100 µg/mL: Cucumis sativus. Here is the method: The wettable powders formulated by using each of the compounds I-1 to 27 according to the present invention and the comparative compounds (a) to (d), (m-1) and (m-3) were each diluted and suspended with water to a predetermined concentration (100 mg/l), the suspension was sprinkled over the first to the second leaf period cucumbers (variety: "[…]") cultivated by using a square plastic pot (size: 6. 4 cm x 6. 4 cm) in a rate of 100 liters/10 a (ares). After the sprinkled leaves were air-dried, the spores were inoculated over the leaves by sprinkling the same with a brush from an infected leaf, a disease was contracted in a glass house (temperature: 20 to 24°C, relative humidity: 20 to 70 RH). On the 9th to 14th day after the inoculation, the infection degree was examined according to the following scale and the control value of each compound was calculated by the following calculation equation 2: [table] (Equation 2) Control value = (1 - infection degree of treated zone/infection degree of untreated zone) x 100 (%) [formula] The control values of each compound are shown in Table 9.

Assay [3] has as its system Botrytis cinerea. Nature of the assay: Antifungal activity test against various pathogenic fungi, hypha extension on PDA plates (Test Example 3). To be noted: for inhibition at 1.6 ppm: read-out: Growth Inhibition B.c (1.6). The assay is classed as cell-based.
For assay [4], the system named is wheat powdery mildew. Briefly: Permeable mobility fungicidal effect test in leaf section of wheat powdery mildew (Test Example 4). The assay is classed as in vivo. Here is the method:
In the test example 4, permeable mobility fungicidal effect test was performedon the leaf section of wheat powdery mildew with regard to the compounds I-1 to 27 according to the present invention and the comparative compounds (a) to (d), and (m-1) to (m-3) with the method described later. The compound in the form of a wettable powder obtained by Formulation 2 or the like was diluted and suspended with water to a predetermined concentration (200mg/l), and 0.5 µl of the suspension was applied to a 2 to 3 cm leaf portion from the root of the three leaves of the 4th to 4.5th leaf period wheat (variety: Abukumawase) cultured by using a square plastic pot (size: 6.4 cm x 6.4 cm). After these wheat leaves were subject to still standing in a glass house (temperature: 20 to 24C, relative humidity: 20 to 70 RH) for one day, the spores of wheat powdery mildew were inoculated over the leaves by sprinkling the same with a brush from an infected leaf, a disease was contracted in the same glass house. The length of a non-contracted area generated from the applied portion to the direction of the leaf top was measured, and a relative mobility to the compound (m-2) was calculated with the following calculation […] by using the comparative compound (m-2) as a standard compound. (Equation 4) Relative mobility = (Length of non-contracted area in each chemical section (cm)/Length of non-contracted area of compound (m-2) (cm)) [formula]

Assay [5] deals with Microdochium nivale. Nature of the assay: Antifungal activity test against various pathogenic fungi, hypha extension on PDA plates (Test Example 3). To be noted: read-out: Growth Inhibition M.n (3.2). The class given is cell-based.
For assay [6], the system named is Leptosphaeria nodorum. Described as above. The assay is classed as cell-based. To be noted: Parastagonospora nodorum, read-out: Growth Inhibition L.n (0.8).
Assay [7] deals with Rhynchosporium secalis. The assay is described as above. The class given is cell-based. Particulars: read-out: Growth Inhibition R.s (100).
The test system of assay [8] is Pyrenophora graminea. The description is as above. The assay is classed as cell-based. To be noted: read-out: Growth Inhibition P.g (12.5).
Assay [9] has as its system Pyricularia oryzae. Briefly: microbe, parasite or virus in culture. The assay is classed as cell-based. To be noted: read-out: Growth Inhibition P.o (12.5).
Assay [10] deals with Venturia inaequalis. Briefly: Antifungal activity test against various pathogenic fungi, hypha extension on PDA plates (Test Example 3). The assay is classed as cell-based. Particulars: read-out: Growth Inhibition V.i (3.2).
The subject of assay [11] is Septoria tritici. The description is as above. The assay is classed as cell-based. To be noted: Zymoseptoria tritici, read-out: Growth Inhibition S.t (100).
For assay [12], the system named is Pseudocercosporella herpotrichoides. The description is as above. The assay is classed as cell-based. To be noted: Oculimacula yallundae, read-out: Growth Inhibition P.h (25).
[13] abbreviates: 1.6 ppm in PDA culture medium, cultured 1 to 7 days.
The mark [14] stands for this setting: length of non-contracted area relative to compound (m-2), 0.5 µl of 200 mg/l suspension applied to wheat leaf (Abukumawase), inoculated after one day.
Setting [15] is: 3.2 ppm in PDA culture medium, cultured 1 to 7 days.
[16] abbreviates: Leptosphaeria nodorum, 0.8 ppm in PDA culture medium, cultured 1 to 7 days.
Setting [17] is: 100 ppm in PDA culture medium, cultured 1 to 7 days.
Where [18] appears, read: 12.5 ppm in PDA culture medium, cultured 1 to 7 days.

Read-outs that look alike come from different tables or passages of the source.

For the molecule `CC(Cc1cccc(C(F)(F)F)c1)CN(C)Cc1ccc(Cl)nc1` (centres unmarked) [(a), 6-chloro-N-methyl-[2-methyl-3-(3-trifluoromethylphenyl)propyl]-3-pyridylmethylamine], the pest or weed control at 125 µg/mL in [1] stood at 70%. The molecule further returned a pest or weed control at 100 µg/mL in [2] of 50%. Besides, the inhibition at 1.6 ppm in assay [3] (setting [13]) lay in the range of 20 to 40%. Also, the “Relative Mobility” value in [4] (setting [14]) is listed as 1.

Molecule `CC(Cc1cccc(OC(F)(F)F)c1)CN(C)Cc1ccc(Cl)nc1` (centres unmarked) [(b), 6-chloro-N-methyl-[2-methyl-3-(3-trifluoromethoxyphenyl)propyl]-3-pyridylmethylamine] showed a pest or weed control at 125 µg/mL in [1] of 80%. This molecule also came in with a pest or weed control at 100 µg/mL in [2] of 60%. For the same molecule, the inhibition at 1.6 ppm in assay [3] (setting [13]) lay within 40 to 70%. For the same molecule, the “Relative Mobility” value in assay [4] (setting [14]) is on record as 3.

For the molecule `CC(Cc1cccc(Cl)c1Cl)CN(C)Cc1ccc(Cl)nc1` (centres unmarked) [(c-1), 6-chloro-N-[3-(2,3-dichlorophenyl)-2-methylpropyl]-N-me thyl-3-pyridylmethylamine], the pest or weed control at 125 µg/mL in assay [1] turned out to be 40%. In [2], this molecule displayed a pest or weed control at 100 µg/mL of 0%. Also, the inhibition at 1.6 ppm in assay [3] (setting [13]) fell in the range of 20 to 40%. Further, the “Relative Mobility” value in assay [4] (setting [14]) was 1.

In turn, `CC(Cc1ccccc1Cl)CN(C)Cc1ccc(Cl)nc1` (centres unmarked) [(c-2), 6-chloro-N-[3-(2-chlorophenyl)-2-methylpropyl]-N-methyl-3-pyridylmethylamine, reference compound] yielded a pest or weed control at 125 µg/mL in assay [1] of 40%. The same molecule yielded a pest or weed control at 100 µg/mL in assay [2] of 0%. For the same molecule, the inhibition at 1.6 ppm in assay [3] (setting [13]) fell in the range of 20 to 40%. Also, the inhibition at 3.2 ppm in [5] (setting [15]) and in [10] (setting [15]) was 20 to 40% in each case. The inhibition at 0.8 ppm in assay [6] (setting [16]) lay in the range of 40 to 70%. Besides, the inhibition at 100 ppm in [7] (setting [17]) fell in the range of 20 to 40%. Besides, the inhibition at 12.5 ppm in assay [8] (setting [18]) fell in the range of 20 to 40%; in assay [9] it was 40 to 70%. Further, the “Relative Mobility” value in [4] (setting [14]) is listed as 1.

For `CC(Cc1cccc(Cl)c1)CN(C)Cc1ccc(Cl)nc1` (centres unmarked) [(c-3), 6-chloro-N-[3-(3-chlorophenyl)-2-methylpropyl]-N-methyl-3-pyridylmethylamine], the pest or weed control at 125 µg/mL in assay [1] amounted to 50%. This molecule returned a pest or weed control at 100 µg/mL in assay [2] of 0%. Also, the inhibition at 1.6 ppm in assay [3] (setting [13]) is 20 to 40%. Also, in [4] (setting [14]), the “Relative Mobility” value was found to be 1.

Molecule `CC(Cc1cccc(F)c1)CN(C)Cc1ccc(Cl)nc1` (centres unmarked) [(c-4), 6-chloro-N-[3-(3-fluorophenyl)-2-methylpropyl]-N-methyl-3-pyridylmethylamine, reference compound] yielded a pest or weed control at 125 µg/mL in assay [1] of 10%. In assay [2], this molecule returned a pest or weed control at 100 µg/mL of 0%. Besides, in [3] (setting [13]), the inhibition at 1.6 ppm is below 20%. Moreover, the inhibition at 3.2 ppm in assay [5] (setting [15]) and in assay [10] (setting [15]) was 20 to 40% throughout. Moreover, in [6] (setting [16]), the inhibition at 0.8 ppm lay within 40 to 70%. Moreover, the inhibition at 100 ppm in assay [7] (setting [17]) lay within 20 to 40%. The inhibition at 12.5 ppm in assay [8] (setting [18]) fell in the range of 20 to 40%; in [9], 40 to 70%. For the same molecule, the “Relative Mobility” value in [4] (setting [14]) was 1.

`CC(Cc1ccc2c(c1)OCO2)CN(C)Cc1ccc(Cl)nc1` (centres unmarked) [(d), 6-chloro-N-[2-methyl-3-(3,4-methylenedioxyphenyl)propyl]-N-methyl-3-pyridylmethylamine] had a pest or weed control at 125 µg/mL in assay [1] of 10%. Besides, the pest or weed control at 100 µg/mL in assay [2] came to 0%. In assay [3] (setting [13]), the inhibition at 1.6 ppm is below 20%. The “Relative Mobility” value in assay [4] (setting [14]) is reported as 1.

`Cc1ccc(CC(C)CN(C)Cc2ccc(Cl)nc2)cc1C` (centres unmarked) [(m-1), 6-chloro-N-[3-(3,4-dimethylphenyl)-2-methylpropyl]-N-me thyl-3-pyridylmethylamine] yielded a pest or weed control at 125 µg/mL in [1] of 10%. This molecule also yielded a pest or weed control at 100 µg/mL in assay [2] of 10%. In addition, the inhibition at 1.6 ppm in assay [3] (setting [13]) lay in the range of 20 to 40%. In assay [4] (setting [14]), the “Relative Mobility” value came out at 1.

Turning to `CC(Cc1ccc(C(C)(C)C)cc1)CN(C)Cc1ccc(Cl)nc1` (centres unmarked) [(m-2), N-[3-(4-t-butylphenyl)-2-methylpropyl]-6-chloro-N-methy 1-3-pyridylmethylamine], in assay [4] (setting [14]), the “Relative Mobility” value was determined as 1.

For the molecule `COc1cccc(CC(C)CN(C)Cc2ccc(Cl)nc2)c1` (centres unmarked) [(m-3), 6-chloro-N-[3-(3-methoxyphenyl)-2-methylpropyl]-N-methy 1-3-pyridylmethylamine], the “Control Value” in assay [1] and in assay [2] was 0% in each case. In addition, the “Growth Inhibition B.c (1.6)” value in assay [3] (setting [13]) was 1 (Hypha extension inhibition rate of less than 20%). The “Relative Mobility” value in [4] (setting [14]) was determined as 1.

Turning to `CC(Cc1ccc(C(F)(F)F)c(F)c1)CN(C)Cc1ccc(Cl)nc1` (centres unmarked) [Compound I-9, 6-chloro-N-[3-(3-fluoro-4-trifluoromethylphenyl)-2-methylpropyl]-N-methyl-3-pyridylmethylamine], the pest or weed control at 125 µg/mL in assay [1] came to 100%. The molecule further returned a pest or weed control at 100 µg/mL in assay [2] of 100%. Besides, the inhibition at 1.6 ppm in assay [3] (setting [13]) was in the range of 70 to 90%. Further, the inhibition at 100 ppm in assay [11] (Septoria tritici, 100 ppm in PDA culture medium, cultured 1 to 7 days) is 70 to 90%. For the same molecule, the “Relative Mobility” value in assay [4] (setting [14]) came to 3.

As for `CC(Cc1ccc(C(F)(F)F)c(F)c1F)CN(C)Cc1ccc(Cl)nc1` (centres unmarked) [Compound I-10], the “Control Value” in assay [1] and in assay [2] was 100% throughout. The inhibition at 1.6 ppm in assay [3] is above 90%. Further, the inhibition at 3.2 ppm in assay [5] and in assay [10] was 70 to 90% throughout. Also, the inhibition at 0.8 ppm in assay [6] lay in the range of 70 to 90%. For the same molecule, the inhibition at 100 ppm in [7] and in assay [11] was 70 to 90% each time. The inhibition at 12.5 ppm in assay [8] and in assay [9] was 70 to 90% throughout. In [12], the inhibition at 25 ppm was above 90%. In addition, the “Relative Mobility” value in assay [4] (24 h, 200 ug/mL) is listed as 3.

With `CC(Cc1ccc(F)c(OC(F)(F)F)c1)CN(C)Cc1ccc(Cl)nc1` (centres unmarked) [Compound I-16], the “Control Value” in [1] and in [2] was 100% each time. Besides, in assay [3], the inhibition at 1.6 ppm fell in the range of 70 to 90%. The inhibition at 0.8 ppm in [6] is above 90%. Besides, the “Relative Mobility” value in assay [4] (24 h, 200 ug/mL) is 9.
